# Where a SMILES comes first, the peptide text is derived from it. [ ]: non-standard residue; d: D form. Phe(4-I) = N[C@@H](Cc1ccc(I)cc1)C(=O)O
# What was measured:
# [1] = system: T-Rex-293 cells; test: CytoTox-Glo cytotoxicity / viability assay; format: cell-based, human; settings: doses up to 75 μM
# Text: Following in vitro characterization and optimization of binding, we next assessed the effect of our cyclic peptides in mammalian cells. A cell line with a stably integrated reporter was constructed, in which the expression of yellow fluorescent protein (YFP) was placed under the control of a HRE. Thus, hypoxia would be expected to increase YFP expression (and subsequent fluorescence) in these cells, whereas treatment with a cell-permeable HIF inhibitor would be expected to reduce this fluorescence signal. A fusion cassette was designed containing the YFP gene preceded by three copies of the HRE sequence. This cassette was stably integrated into T-REx-293 cells as previously described.[12] […] The effect of this compound on the viability of T-Rex-293 was assessed with no effect observed at doses up to 75 μM (Figure S9a). […] It should be noted that the relative activity of each compound in this assay will be a combination of its cell permeability and HIF-inhibiting activity. […] We therefore continued to further characterize the cell activity of the 4-iodo-phenylalanine derivative. […]
# Pancreatic cancer cells (PANC-1) were plated in a T75 flask at 80% confluency overnight under normoxic conditions. […] The concentration of the extracted proteins was measured using the BCA Protein Assay Kit (Sigma) following the manufacturer's instructions. […]
# [2] = target: T1, HIF-2α PAS-B domain (Homo sapiens, UniProt Q99814); test: MST binding to the PAS-B domain of HIF-2α; settings: MST KD ratio
# T1 construct: made in house
# T1 sequence (Q99814 240-350 limits assumed): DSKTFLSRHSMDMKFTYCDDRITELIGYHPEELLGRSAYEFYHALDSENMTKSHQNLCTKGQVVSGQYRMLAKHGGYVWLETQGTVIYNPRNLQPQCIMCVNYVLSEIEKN
# Experimental: All reagents were purchased from Fisher Scientific or Sigma Aldrich UK unless specified otherwise.
# Restriction enzymes and microbiology reagents were purchased from New England Biolabs Inc., Fisher Scientific (UK) or Promega (UK) and were used as directed by the manufacturer. Primers and oligonucleotides were synthesised by Integrated DNA Technologies (UK). DNA sequencing was carried out by Eurofins MWG Operon (Germany).
# Construction of the RTHS and SICLOPPS library, screening, purification of recombinant HIF proteins, and the PLA was conducted as previously described in Miranda et al., J. Am. Chem. Soc., 2013, 135(28); […]
# Protein labelling with MST dye
# Protein was buffer exchanged from storage buffer into labelling buffer (0.1 M NaHCO3, pH 8.5) using a PD spintrap G-25 column (GE healthcare). The protein concentration was then adjusted to 20 µM.
# The commercially sourced MST dye (NanoTemper) was prepared as a 470 µM solution in DMSO, which was then further diluted to 60 µM using labelling buffer. To the protein solution was added an equal volume of dye solution, and the labelling reaction was left for 1 hour in the dark at room temperature.
# The labelled protein was separated from unreacted dye by elution through a PD minitrap G-25 column (GE healthcare). Labelled protein was then aliquoted and stored at -80 °C. Extent of labelling was measured by the absorbance obtained using the UV-vis mode on a NanoDrop ND-1000 Spectrophotometer (NanoDrop Technologies, USA).
# Labelled protein was thawed on ice and diluted to 50 nM in assay buffer containing 50 mM Tris pH 8.0, 150 mM NaCl, 5% (v/v) glycerol, 1 mM TCEP and 0.05% TWEEN-20. The protein solution was then centrifuged at 12000 rpm for 15 minutes at 4 °C and left on ice. Compounds were prepared and serially diluted in DMSO at 10x assay concentration, before diluting to 2x assay concentration in assay buffer.
# The 2x compound solutions were then mixed 1:1 (v/v) with 50 nM labelled protein solution and left to incubate for 1 hour at room temperature. Solutions were then loaded into Monolith NT.115 Premium Capillaries (NanoTemper) and placed in the sample tray. MST experiments were carried out
compound,measurement,setting,value
CC[C@H](C)[C@@H]1NC(=O)[C@H](CC(C)C)NC(=O)[C@H](CCCNC(=N)N)NC(=O)[C@H](CS)NC(=O)[C@H](Cc2ccc(I)cc2)NC(=O)[C@H]([C@@H](C)CC)NC1=O [cyclo-CRLII(4-iodo)F] (cyclo(CRLII[Phe(4-I)])),effect on the viability of T-Rex-293,[1],no effect
same,improvement in KD for HIF-2α PAS-B compared to the parent cyclic peptide,[2],6.5 fold

# Source: article PMC10996005, “Identification and Development of Cyclic Peptide Inhibitors of Hypoxia Inducible Factors 1 and 2 That Disrupt Hypoxia-Response Signaling in Cancer Cells” (Journal of the American Chemical Society, 2024)
